Test results: patent publication US20230398130A1, “METHODS AND COMPOSITIONS FOR DIFFERENTIATING STEM CELLS” (Massachusetts Institute of Technology, priority 2020, published 2023)

What was measured:
ISC-enriched organoids [1] = assay: Primary screen, 384-well 2.5-D organoid differentiation (ENR+CD, 6 days): carbachol-induced lysozyme secretion (LYZ.S); assay type: cell-based, murine; settings: primary screen; for Dose.FC.LYZ.S: FC vs plate median; for Dose.FC.LYZ.S (log 2 fold change): vs plate median
Source text: (§1) High-throughput screening.

ISC-enriched organoids [2] = assay: Primary screen, 384-well 2.5-D organoid differentiation (ENR+CD, 6 days, Target Selective Inhibitor Library, vs whole-plate median): ATP (CellTiter-Glo 3D, CTG); settings: for Dose.FC.CTG / Z.CTG (standard z score) / Dose.FC.CTG (log 2 fold change): primary screen; for Dose.FC.CTG: FC vs plate median; for Z.CTG: standard z score of FC; for Dose.FC.CTG (log 2 fold change): vs plate median
ISC-enriched organoids [3] = assay: Secondary (validation) screen, 384-well 2.5-D, ENR+CD 6 days, n=8 wells, vs ENR+CD+DMSO control: ATP (CTG); assay type: cell-based, murine; set-up: key to Dose.FC.CTG: log10 fold change vs median of vehicle control wells
Method: (§2) Drugs were tested at a narrowed dose range around each treatment's identified optimal dose from the primary screen (4× below, 2× above and below).
as §1
(§3) Secondary lysozyme secretion assay screen. Confirmatory secondary screening with primary hits was performed using the above 384-well plate method. The screen was conducted with 4-plate replicates with a base media of ENR+CD. Media was supplemented with compound at day 0 and day 3 (n=8 well replicates per dose) at four different doses: two-fold above, two-fold below, and four-fold below the optimal final dose for each respective treatment. Additionally, each plate carried a large number of ENR+DMSO or ENR+CD+DMSO (vehicle) control wells (n=100 for ATP, and n=25 for LYZ.NS and LYZ.S) for robust normalization. ATP, non-stimulated lysozyme activity and CCh-stimulated lysozyme activity was again measured and the collected data was again processed in a custom R-script, per primary screen with slight modification. Values were log10 transformed, and a plate-wise FC was calculated for each well based on the median value of ENR+CD+DMSO (vehicle) control wells to normalize plate to plate variability.

ISC-enriched organoids [4] = assay: Secondary (validation) screen, 384-well 2.5-D, ENR+CD 6 days, n=8 wells, vs ENR+CD+DMSO control: basal lysozyme secretion (LYZ.NS); assay type: cell-based, murine; set-up: key to Dose.FC.LYZ.NS: log10 fold change vs median of vehicle control wells
Method: as §2, §1, §3

ISC-enriched organoids [5] = assay: Primary screen, 384-well 2.5-D organoid differentiation (ENR+CD, 6 days): basal lysozyme secretion (LYZ.NS); assay type: cell-based, murine; settings: for Dose.FC.LYZ.NS / Z.LYZ.NS (standard z score) / Dose.FC.LYZ.NS (log 2 fold change): primary screen; for Dose.FC.LYZ.NS: FC vs plate median; for Z.LYZ.NS: standard z score of FC; for Dose.FC.LYZ.NS (log 2 fold change): vs plate median
Source text: as §1

ISC-enriched organoids [6] = assay: Secondary (validation) screen, 384-well 2.5-D, ENR+CD 6 days, n=8 wells, vs ENR+CD+DMSO control: carbachol-induced lysozyme secretion (LYZ.S); assay type: cell-based, murine
Method: as §2, §1, §3

CCc1cncnc1N1CCN(Cc2nc3ccc(C(F)(F)F)cc3[nH]2)CC1 [PF-4708671]
Dose.FC.LYZ.S (ISC-enriched organoids [1]; Dose 0.08 uM): 0.136 log 2 fold change
Dose.FC.LYZ.S (ISC-enriched organoids [1]; Dose 0.40 uM): 0.172 log 2 fold change
Dose.FC.LYZ.S (ISC-enriched organoids [1]; Dose 2.00 uM): 0.209 log 2 fold change
Dose.FC.LYZ.S (ISC-enriched organoids [1]; Dose 10.00 uM): −0.024 log 2 fold change
Dose.FC.CTG (ISC-enriched organoids [2]; Dose 0.08 uM): 0.261 log 2 fold change
Z.CTG (ISC-enriched organoids [2]; Dose 0.08 uM): 0.623
Dose.FC.CTG (ISC-enriched organoids [2]; Dose 0.40 uM): 0.268 log 2 fold change
Z.CTG (ISC-enriched organoids [2]; Dose 0.40 uM): 0.640
Dose.FC.CTG (ISC-enriched organoids [2]; Dose 2.00 uM): 0.302 log 2 fold change
Z.CTG (ISC-enriched organoids [2]; Dose 2.00 uM): 0.721
Dose.FC.CTG (ISC-enriched organoids [2]; Dose 10.00 uM): −0.321 log 2 fold change
Z.CTG (ISC-enriched organoids [2]; Dose 10.00 uM): −0.766
Dose.FC.CTG (ISC-enriched organoids [3]; Dose 0.50 uM): −0.049
Z.CTG (ISC-enriched organoids [3]; Dose 0.50 uM): −0.443
repSSMD.CTG (ISC-enriched organoids [3]; Dose 0.50 uM): −0.324
Dose.FC.CTG (ISC-enriched organoids [3]; Dose 1.00 uM): −0.039
Z.CTG (ISC-enriched organoids [3]; Dose 1.00 uM): −0.354
repSSMD.CTG (ISC-enriched organoids [3]; Dose 1.00 uM): −0.284
Dose.FC.CTG (ISC-enriched organoids [3]; Dose 4.00 uM): 0.067
Z.CTG (ISC-enriched organoids [3]; Dose 4.00 uM): 0.601
repSSMD.CTG (ISC-enriched organoids [3]; Dose 4.00 uM): 0.414
Dose.FC.CTG (ISC-enriched organoids [3]; dose 2.00 uM): −0.076
Z.CTG (ISC-enriched organoids [3]; dose 2.00 uM): −0.684
repSSMD.CTG (ISC-enriched organoids [3]; dose 2.00 uM): −0.558
Dose.FC.LYZ.NS (ISC-enriched organoids [4]; Dose 0.50 uM): 0.005
Z.LYZ.NS (ISC-enriched organoids [4]; Dose 0.50 uM): 0.039
repSSMD.LYZ.NS (ISC-enriched organoids [4]; Dose 0.50 uM): 0.058
Dose.FC.LYZ.NS (ISC-enriched organoids [4]; Dose 1.00 uM): −0.200
Z.LYZ.NS (ISC-enriched organoids [4]; Dose 1.00 uM): −1.600
repSSMD.LYZ.NS (ISC-enriched organoids [4]; Dose 1.00 uM): −1.909
Dose.FC.LYZ.NS (ISC-enriched organoids [4]; Dose 4.00 uM): 0.015
Z.LYZ.NS (ISC-enriched organoids [4]; Dose 4.00 uM): 0.120
repSSMD.LYZ.NS (ISC-enriched organoids [4]; Dose 4.00 uM): 0.171
Dose.FC.LYZ.NS (ISC-enriched organoids [4]; dose 2.00 uM): −0.221
Z.LYZ.NS (ISC-enriched organoids [4]; dose 2.00 uM): −1.764
repSSMD.LYZ.NS (ISC-enriched organoids [4]; dose 2.00 uM): −2.529
Dose.FC.LYZ.NS (ISC-enriched organoids [5]; Dose 0.08 uM): 0.075 log 2 fold change
Z.LYZ.NS (ISC-enriched organoids [5]; Dose 0.08 uM): 0.654
Dose.FC.LYZ.NS (ISC-enriched organoids [5]; Dose 0.40 uM): 0.122 log 2 fold change
Z.LYZ.NS (ISC-enriched organoids [5]; Dose 0.40 uM): 1.059
Dose.FC.LYZ.NS (ISC-enriched organoids [5]; Dose 2.00 uM): 0.198 log 2 fold change
Z.LYZ.NS (ISC-enriched organoids [5]; Dose 2.00 uM): 1.721
Dose.FC.LYZ.NS (ISC-enriched organoids [5]; Dose 10.00 uM): 0.034 log 2 fold change
Z.LYZ.NS (ISC-enriched organoids [5]; Dose 10.00 uM): 0.297
Z.LYZ.S (ISC-enriched organoids [6]; Dose 0.50 uM): −0.305
log10 fold change in stimulated lysozyme secretion vs vehicle control (ISC-enriched organoids [6]; Dose 0.50 uM): −0.040
repSSMD.LYZ.S (ISC-enriched organoids [6]; Dose 0.50 uM): −0.496
Z.LYZ.S (ISC-enriched organoids [6]; Dose 1.00 uM): −1.879
log10 fold change in stimulated lysozyme secretion vs vehicle control (ISC-enriched organoids [6]; Dose 1.00 uM): −0.245
repSSMD.LYZ.S (ISC-enriched organoids [6]; Dose 1.00 uM): −2.451
Z.LYZ.S (ISC-enriched organoids [6]; Dose 4.00 uM): −0.320
log10 fold change in stimulated lysozyme secretion vs vehicle control (ISC-enriched organoids [6]; Dose 4.00 uM): −0.042
repSSMD.LYZ.S (ISC-enriched organoids [6]; Dose 4.00 uM): −0.503
Z.LYZ.S (ISC-enriched organoids [6]; dose 2.00 uM): −2.088
log10 fold change in stimulated lysozyme secretion vs vehicle control (ISC-enriched organoids [6]; dose 2.00 uM): −0.272
repSSMD.LYZ.S (ISC-enriched organoids [6]; dose 2.00 uM): −3.604

NC(=O)c1ccc(-c2nc(-c3ccccn3)c(-c3ccc4c(c3)OCO4)[nH]2)cc1 [SB431542]
Dose.FC.LYZ.S (log 2 fold change) (ISC-enriched organoids [1]; Dose 0.08 uM): 0.135
Dose.FC.LYZ.S (log 2 fold change) (ISC-enriched organoids [1]; Dose 0.40 uM): 0.309
Dose.FC.LYZ.S (log 2 fold change) (ISC-enriched organoids [1]; Dose 2.00 uM): 0.223
Dose.FC.LYZ.S (log 2 fold change) (ISC-enriched organoids [1]; Dose 10.00 uM): 0.126
Z.CTG (standard z score) (ISC-enriched organoids [2]; Dose 0.08 uM): 0.907
Dose.FC.CTG (log 2 fold change) (ISC-enriched organoids [2]; Dose 0.08 uM): 0.380
Z.CTG (standard z score) (ISC-enriched organoids [2]; Dose 0.40 uM): 1.130
Dose.FC.CTG (log 2 fold change) (ISC-enriched organoids [2]; Dose 0.40 uM): 0.473
Z.CTG (standard z score) (ISC-enriched organoids [2]; Dose 2.00 uM): 0.754
Dose.FC.CTG (log 2 fold change) (ISC-enriched organoids [2]; Dose 2.00 uM): 0.316
Z.CTG (standard z score) (ISC-enriched organoids [2]; Dose 10.00 uM): 0.370
Dose.FC.CTG (log 2 fold change) (ISC-enriched organoids [2]; Dose 10.00 uM): 0.155
Dose.FC.CTG (ISC-enriched organoids [3]; Dose 0.06 uM): 0.160
Z.CTG (ISC-enriched organoids [3]; Dose 0.06 uM): 1.439
repSSMD.CTG (ISC-enriched organoids [3]; Dose 0.06 uM): 0.654
Dose.FC.CTG (ISC-enriched organoids [3]; Dose 0.24 uM): 0.023
Z.CTG (ISC-enriched organoids [3]; Dose 0.24 uM): 0.206
repSSMD.CTG (ISC-enriched organoids [3]; Dose 0.24 uM): 0.141
Dose.FC.CTG (ISC-enriched organoids [3]; Dose 0.48 uM): 0.083
Z.CTG (ISC-enriched organoids [3]; Dose 0.48 uM): 0.752
repSSMD.CTG (ISC-enriched organoids [3]; Dose 0.48 uM): 0.527
Dose.FC.CTG (ISC-enriched organoids [3]; Dose […]): 0.120
Dose.FC.LYZ.NS (ISC-enriched organoids [4]; Dose 0.06 uM): 0.089
Z.LYZ.NS (ISC-enriched organoids [4]; Dose 0.06 uM): 0.709
repSSMD.LYZ.NS (ISC-enriched organoids [4]; Dose 0.06 uM): 1.073
Dose.FC.LYZ.NS (ISC-enriched organoids [4]; Dose 0.24 uM): 0.105
Z.LYZ.NS (ISC-enriched organoids [4]; Dose 0.24 uM): 0.838
repSSMD.LYZ.NS (ISC-enriched organoids [4]; Dose 0.24 uM): 0.830
Dose.FC.LYZ.NS (ISC-enriched organoids [4]; Dose 0.48 uM): −0.016
Z.LYZ.NS (ISC-enriched organoids [4]; Dose 0.48 uM): −0.128
repSSMD.LYZ.NS (ISC-enriched organoids [4]; Dose 0.48 uM): −0.149
Dose.FC.LYZ.NS (ISC-enriched organoids [4]; Dose […]): 0.116
Z.LYZ.NS (standard z score) (ISC-enriched organoids [5]; Dose 0.08 uM): 1.225
Dose.FC.LYZ.NS (log 2 fold change) (ISC-enriched organoids [5]; Dose 0.08 uM): 0.141
Z.LYZ.NS (standard z score) (ISC-enriched organoids [5]; Dose 0.40 uM): 1.514
Dose.FC.LYZ.NS (log 2 fold change) (ISC-enriched organoids [5]; Dose 0.40 uM): 0.174
Z.LYZ.NS (standard z score) (ISC-enriched organoids [5]; Dose 2.00 uM): 1.632
Dose.FC.LYZ.NS (log 2 fold change) (ISC-enriched organoids [5]; Dose 2.00 uM): 0.187
Z.LYZ.NS (standard z score) (ISC-enriched organoids [5]; Dose 10.00 uM): 0.346
Dose.FC.LYZ.NS (log 2 fold change) (ISC-enriched organoids [5]; Dose 10.00 uM): 0.040
Z.LYZ.S (ISC-enriched organoids [6]; Dose 0.06 uM): 0.514
log10 fold change in stimulated lysozyme secretion vs vehicle control (ISC-enriched organoids [6]; Dose 0.06 uM): 0.067
repSSMD.LYZ.S (ISC-enriched organoids [6]; Dose 0.06 uM): 0.855
Z.LYZ.S (ISC-enriched organoids [6]; Dose 0.24 uM): 0.211
log10 fold change in stimulated lysozyme secretion vs vehicle control (ISC-enriched organoids [6]; Dose 0.24 uM): 0.027
repSSMD.LYZ.S (ISC-enriched organoids [6]; Dose 0.24 uM): 0.301
Z.LYZ.S (ISC-enriched organoids [6]; Dose 0.48 uM): −0.387
log10 fold change in stimulated lysozyme secretion vs vehicle control (ISC-enriched organoids [6]; Dose 0.48 uM): −0.050
repSSMD.LYZ.S (ISC-enriched organoids [6]; Dose 0.48 uM): −0.449
log10 fold change in stimulated lysozyme secretion vs vehicle control (ISC-enriched organoids [6]; Dose […]): 0.072
